# Results from patent US7884123B2, “Substituted thieno[2,3-c]pyrazoles, process for preparing them, compositions containing them, and use thereof” (Aventis Pharma S.A., priority 2004, dated 2011).
# Structures can show the parent of a compound that is named as a salt.
# Tests used:
# [1] = target: T1, Aurora2 (Homo sapiens, UniProt O14965); assay: Aurora2 kinase radioactivity scintillation test using nickel chelate; assay type: biochemical
# T1 construct: A complete recombinant Aurora2 enzyme, the N-terminal of which was labeled with histidine, was expressed in E. coli; His tag (N); made in house; host or cells: E. coli
# T1 sequence (O14965 1-403): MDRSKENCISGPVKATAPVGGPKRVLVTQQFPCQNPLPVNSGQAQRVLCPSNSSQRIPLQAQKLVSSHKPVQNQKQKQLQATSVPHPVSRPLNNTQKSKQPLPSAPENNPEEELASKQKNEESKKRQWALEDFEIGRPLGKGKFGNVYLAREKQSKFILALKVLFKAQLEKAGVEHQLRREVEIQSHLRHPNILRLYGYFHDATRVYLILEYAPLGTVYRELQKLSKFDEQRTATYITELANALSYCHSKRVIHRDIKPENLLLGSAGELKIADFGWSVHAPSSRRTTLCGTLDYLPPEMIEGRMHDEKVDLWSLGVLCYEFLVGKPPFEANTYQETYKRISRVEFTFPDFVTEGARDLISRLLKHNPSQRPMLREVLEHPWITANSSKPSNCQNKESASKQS
# Procedure: The inhibitory effect of the compounds toward the kinase Aurora2 is determined via a radioactivity scintillation test using nickel chelate.
# A complete recombinant Aurora2 enzyme, the N-terminal of which was labeled with histidine, was expressed in E. coli and purified to a quality close to homogeneity.
# The C-terminal fragment (Q1687-H2101) of an NuMA (Nuclear protein which is associated with the Mitotic Apparatus) expressed in E. coli, and the N-terminal end of which was labeled with histidine, was purified by nickel chelate chromatography and used as substrate in the Aurora2 kinase test.
# To determine the kinase activity, the substrate NuMA is equilibrated by chromatography on a PD10 Pharmacia column, in a buffer (50 mM Tris-HCl, pH 7.5, 50 mM NaCl, 10 mM MgCl2) supplemented with 10% (v/v) of glycerol and 0.05% (w/v) of NP40.
# The kinase activity of Aurora2 is measured by scintillation with nickel chelate (New England Nuclear, SMP107 model). Each well contains 100 μl of the following solution: 0.02 μM of Aurora2; 0.5 μM of NuMA substrate; 1 μM of ATP supplemented with 0.5 μCi of ATP-[^33P]. The solutions are incubated for 30 minutes at 37° C. The test buffer is then removed and the wells are rinsed twice with 300 μl of kinase buffer. The radioactivity is measured in each well using a Packard Model Top Count NXT machine.
# The background noise is deduced by measuring radioactivity measured in duplicate in wells containing the radioactive ATP alone containing buffered kinase treated in the same manner as for the other samples.
# The activity of the control is determined by measuring in duplicate the radioactivity in the complete test mixture (ATP, Aurora2 and substrate NuMA), in the absence of test compound.
# The inhibition of the activity of Aurora2 with a compound of the invention is expressed as a percentage of inhibition of the control activity in the absence of test compound. Staurosporin is added to each plate as inhibition control.
# The activity of the products was determined by measuring the inhibition of Aurora2 activity.
# [2] = target: T2, CDK2/cycline E (Homo sapiens, UniProt P24941); assay: CDK2/cyclineE Flashplate test in 96-well format; assay type: biochemical
# T2 construct: made in house; host or cells: Sf21 insect cells (baculovirus coinfection)
# Procedure: Purification of the CDK2/cyclineE-(His)6 Complex by IMAC (Immobilized Metal Affinity Chromatography):
# Two recombinant baculoviruses bearing the human sequences coding, respectively, for CDK2 and cyclineE (the latter bearing a C-terminal hexahistidine tag) are used to coinfect Sf21 insect cells. Two to three days after the start of coinfection, the cells are harvested by centrifugation and then stored at −40° C. until the time of use. After thawing and mechanical lysis of the cells, the complex present in the lysis supernatant is purified by affinity chromatography on nickel (IMAC), and stored at −80° C.
# CDK2/cyclineE Flashplate Test in 96-Well Format.
# A format in streptavidin-coated 96-well plates is used to test the activity of the compounds on the kinase activity of CDK2/cycline E.
# To perform this test, the biotinylated peptide substrate, a fragment of the protein pRb (biotinyl-[…]—OH) (SEQ ID NO: 1), is dissolved at a concentration of 1 mM in kinase buffer (HEPES/NaOH 50 mM, NaCl 1 mM, MgCl2 5 mM, pH 7.5) in order to constitute a stock solution stored at −20° C. in the form of 110 μL aliquots. On the day of the experiment, an aliquot of this solution is thawed and diluted in kinase buffer containing 1 mM of dithiothreitol, added to the buffer extemporaneously, in order to obtain a concentration of 14.3 μM. 70 μL of this solution are added to each well of the Flashplate in order to obtain a final substrate concentration of 10 μM during the enzymatic reaction performed in a final volume of the reaction medium of 100 μL (cf. below).
# Intermediate dilutions of inhibitors (products of the invention) at various concentrations are prepared in DMSO from stock solutions at 10 mM in separate tubes. […]
# When the incubation is complete, the plate is washed three times with 300 μL per well of PBS (phosphate-buffered saline, pH=7.4, without calcium or magnesium, reference 10010-015, Gibco BRL). The incorporation of ^33P to the peptide is quantified by scintillation counting with a Packard Topcount.NXT machine. […]
# [3] = target: T3, human Tie2 (Homo sapiens, UniProt Q02763); assay: Test of phosphorylation of PLC with Tie2 (GST-Tie2); assay type: biochemical
# T3 construct: amino acids of the intracellular domain 776-1124; made in house; host or cells: baculovirus expression (pFastBacGT vector)
# Procedure: The coding sequence of human Tie2 corresponding to the amino acids of the intracellular domain 776-1124 was generated by PCR using the cDNA isolated from a human placenta as a model. This sequence was introduced into a pFastBacGT baculovirus expression vector in the form of a GST fusion protein.
# The inhibitory effect of the molecules is determined in a test of phosphorylation of PLC with Tie2 in the presence of GST-Tie2 purified to about 80% homogeneity. The substrate is composed of the SH2-SH3 fragments of PLC expressed in the form of a GST fusion protein.
# The kinase activity of Tie2 is measured in a MOPS 20 mM pH 7.2 buffer, containing 10 mM MgCl2, 10 mM MnCl2, 1 mM DTT, 10 mM of glycerophosphate. In a 96-well FlashPlate plate maintained on ice, a reaction mixture is deposited, composed of 70 μL of kinase buffer containing 100 ng of enzyme GST-Tie2 per well. Next, 10 μL of the test molecule diluted in DMSO to a maximum concentration of 10% are added. For a given concentration, each measurement is performed four times. The reaction is initiated by adding 20 μL of solution containing 2 μg of GST-PLC, 2 μm of cold ATP and 1 μCi of ^33P [ATP]. […] The radioactivity is measured on a MicroBeta1450 Wallac.
# The inhibition of the Tie2 activity is calculated and expressed as a percentage of inhibition relative to the control activity determined in the absence of compound.
# T3 sequence (Q02763 776-1124): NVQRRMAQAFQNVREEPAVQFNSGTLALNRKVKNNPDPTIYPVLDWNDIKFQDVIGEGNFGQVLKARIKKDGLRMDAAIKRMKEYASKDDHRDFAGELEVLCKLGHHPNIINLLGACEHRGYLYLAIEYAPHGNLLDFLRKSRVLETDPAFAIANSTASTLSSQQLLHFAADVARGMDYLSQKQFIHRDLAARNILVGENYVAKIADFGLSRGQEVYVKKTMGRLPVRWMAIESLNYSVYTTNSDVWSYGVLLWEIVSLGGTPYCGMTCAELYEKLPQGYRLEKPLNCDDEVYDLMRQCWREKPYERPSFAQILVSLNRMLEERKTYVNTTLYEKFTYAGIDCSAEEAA
IC50 [1] [nM],IC50 [2] [nM],melting point [°C],IC50 [3] [nM],Compound
< 50,522,142,–,O=C(NOc1ccccc1)c1cc2c(/C=C/c3ccccc3)n[nH]c2s1 [Example 2]
< 50,< 500,–,< 500,"O=C(Nc1n[nH]c2sc(C(=O)NOc3ccccc3)cc12)c1cccs1 [Example 3, 3-[(thiophene-2-carbonyl)amino]-1H-thieno[2,3-c]pyrazole-5-(N-phenoxycarboxamide)hydrochloride]"
< 50,< 100,171,–,"O=C(NOc1ccccc1)c1cc2c(-c3cc4ccccc4[nH]3)n[nH]c2s1 [Example 1, 3-(1H-indol-2-yl)-1H-thieno[2,3-c]pyrazole-5-(N-phenoxycarboxamide)]"
